Drawing on US12419948B2, “Immunogenic compositions and use thereof” (priority 2020, dated 2025), this text covers IC50 for four sequences.

Holding throughout (test): biochemical
Common to all, as to format: binding

One assay addresses T1, HLA-B*44:02 (Homo sapiens, UniProt P01889, A223V/A65T/A93T/A95T/D201E/D98Y/E176V/E187L/E204Q/E69K/G107R/H137Y/K202T/L105A/L119I/N104T/N87E/Q56L/Q94N/R106L/R155S/R180D/S101N/S121R/S35A/S48T/T118I/V36M/W191S/Y140D/Y91S).
T1 construct: made in house
The settings on record: synthetic peptide, purified MHC.

The target in a further assay is HLA-A*26:01 (Homo sapiens, UniProt P04439, A114D/A173T/A270S/D101N/D185E/E277Q/E87N/F33Y/G231S/I121R/I218V/K168Q/L180W/L300P/L318F/P208A/P217A/Q86R/Q94H/R138Q/S129P/T187R/T323A/T345S/V100A/V358M).
Another assay deals with T2, HLA-A*01:01 (Homo sapiens, UniProt P04439, A114D/A174V/A182V/D101N/D185E/E176A/E190D/L180R/Q94H/R68K/S129P/T187R/V100A/V91M/W191G).
T2 construct: made in house
The settings on record: synthetic peptide, purified MHC.

The next assay concerns the target T3, HLA-B*44:03 (Homo sapiens, UniProt P01889, A223V/A65T/A93T/A95T/D201E/D98Y/E176V/E187L/E204Q/E69K/G107R/H137Y/K202T/L105A/L119I/N104T/N87E/Q56L/Q94N/R106L/R155S/R180L/S101N/S121R/S35A/S48T/T118I/V36M/W191S/Y140D/Y91S).
T3 construct: made in house
To be noted: synthetic peptide, purified MHC.

Another assay has as its target T4, HLA-B*18:01 (Homo sapiens, UniProt P01889, A329T/A93T/A95T/C349S/D201E/D54G/D98Y/E176V/E187T/E204Q/E69T/K202T/Q94N/R155S/R180L/S121R/V306I/Y140S/Y195H/Y33H/Y91S).
T4 construct: made in house

The target in another assay is T5, HLA-B*15:01 (Homo sapiens, UniProt P01889, A329T/A93T/A95T/C349S/D201E/D98Y/E187L/E204Q/E69M/E70A/K202T/N87E/Q94N/R155S/R180W/S121R/S35A/S48A/V306I/V36M/Y140S/Y91S).
T5 construct: made in house

The next assay deals with T6, HLA-B*51:01 (Homo sapiens, UniProt P01889, A329T/A93T/A95T/C349S/D138N/D201E/D98Y/E187L/E204Q/E69T/G107R/I218V/K202T/L105A/L119W/N104I/Q94N/R106L/R155S/R180L/S101N/S121T/S35A/S48A/V306I/V36M/Y195H/Y91F).
T6 construct: made in house
To be noted: synthetic peptide, purified MHC.

The target in another assay is T7, HLA-A*02:01 (Homo sapiens, UniProt P04439, D140Y/D185E/D98H/E176V/E277Q/G131W/G231S/I119V/I121R/I166T/I218V/L300P/L318F/N151K/N90K/P208A/P217A/Q86G/Q94H/R138H/R169H/T345S).
T7 construct: made in house

[1] abbreviates: read-out: Binding in vitro (IC50, [nM]).

Read-outs that look alike come from different tables or passages of the source. Where no end group is shown, it is not given here.

Take APRITFGGP [Peptide 29]: the 50% inhibitory concentration (IC50) against HLA-B*44:02 was more than 70 µM; against HLA-A*26:01 it was more than 70 µM; against HLA-A*01:01 it was more than 70 µM; on HLA-B*44:03 it was more than 70 µM; against HLA-B*18:01, more than 70000 nM; against HLA-B*15:01, more than 70 µM. Also, the 50% inhibitory concentration (IC50) on HLA-B*51:01 was more than 70 µM.

On to DEFVVVTV, for which, on HLA-B*18:01 (setting [1]), the concentration for half-maximal inhibition (IC50) is less than 0.5 nM.

As to GLITLSYHL, the IC50 at HLA-A*02:01 (HLA allele A0201, peptide detected in HEK293T, IC50 <500 nM indicates binding, read-out: Binding in vitro (IC50, [nM])) is less than 0.5 nM; on HLA-A*02:01 (read-out: IC50, binding to HLA-A*02:01) it was less than 0.5 nM.

Turning to KNIDGYFKIY, the IC50 on HLA-B*18:01 (setting [1]) was more than 70000 nM.
